Measured values reported in patent US9877999B2, “Methods for treating metastatic stage prostate cancer” (Ferring International SA, priority 2008, dated 2018).
Values joined by “and” are separate entries in the source; they are usually repeats but may differ in a detail not shown here. Identical values can stand only once. Like-named read-outs stand apart in the source and are kept apart here. Square brackets hold non-standard residues; d marks the D form. Peptide text beside a SMILES is read from it. * marks the point of attachment. dPhe(4-NHCONH2) = NC(=O)Nc1ccc(C[C@@H](N)C(=O)O)cc1; Dihydroorotyl(S) = O=C1C[C@@H](C(=O)*)NC(=O)N1; dPhe(4-Cl) = N[C@H](Cc1ccc(Cl)cc1)C(=O)O; Phe(4-NH2) = Nc1ccc(C[C@H](N)C(=O)O)cc1; d2Nal = N[C@H](Cc1ccc2ccccc2c1)C(=O)O; Lys(iPr) = CC(C)NCCCC[C@H](N)C(=O)O; d3Pal = N[C@H](Cc1cccnc1)C(=O)O

Key:
[1] = tested on: serum alkaline phosphatase (S-ALP); assay: S-ALP analysis in prostate cancer patients (clinical study CS21); assay type: in vivo, human; settings: Degarelix 240/80 mg
Procedure: Patients with histologically confirmed adenocarcinoma of the prostate (all stages), for whom androgen deprivation therapy was indicated were recruited. Baseline characteristics were well balanced between groups. Approximately half of patients had locally advanced (29.2%) or metastatic (20.5%) disease at baseline. […] Patients receiving leuprolide could also receive bicalutamide for clinical flare protection. The S-ALP levels were measured in each patient at various time points, by taking a blood sample and analyzing for S-ALP. S-ALP levels were measured using a standardized colorimetric assay based on the p-nitrophenyl phosphate AMP buffer method. The normal range for S-ALP is 44-147 IU/L. The S-ALP values in non-metastatic patients serve as controls. An ANOVA analysis with treatment and day as factors and baseline value as covariate was used to determine between treatment differences at Day 364. A repeated measures analysis (incorporating all time points from Day 112) with treatment and day as factors and baseline value as covariate was used to assess between treatment differences from Day 112 to Day 364.

[2] = tested on: prostate-specific antigen (PSA); assay: PSA failure in prostate cancer patients (clinical study CS21); assay type: in vivo, human; settings: for proportion of PSA failures: degarelix 240/80 mg
Procedure: For this analysis, PSA failure (a secondary endpoint) was defined as two consecutive increases in PSA of 50% and 5 ng/mL compared with nadir. The time to PSA failure was defined as the number of days from first dosing to where an increase in serum PSA of 50% from nadir and 5 ng/mL, measured on two consecutive occasions at least two weeks apart, was noted. The second occasion was the time point of meeting the criterion. PSA failure rates were also analyzed by disease stage and baseline PSA level.
(§1) The secondary efficacy endpoints were: the proportion of patients with testosterone surge during the first 2 weeks of treatment; the proportion of patients with testosterone level ≦0.5 ng/mL at day 3; the percentage change in PSA from baseline to day 28; the probability of testosterone ≦0.5 ng/mL from day 56 through day 364; the levels of serum testosterone, LH, FSH and PSA over time through the study; the time to PSA failure, defined as two consecutive increases of 50%, and at least 5 ng/mL as compared to nadir; degarelix concentration over the first month and trough levels at day 308 and 336; the frequency and size of testosterone increases at day 255 and/or 259 compared to the testosterone level at day 252; the quality of life on days 0, 28, 84, 168 and end of study visit; the frequency and intensity of hot flushes experienced (scored daily from study start until end of study visit). In addition, two further secondary endpoints were added: the probability of sufficient testosterone response from day 28 through day 364 (a patient was considered to have insufficient testosterone response if they had one testosterone value >1.0 ng/mL or two consecutive testosterone values >0.5 ng/mL at day 28 onwards); and the percentage change in PSA from baseline to day 14.
The secondary endpoints, probability of testosterone ≦0.5 ng/mL from day 56 through day 364, time to PSA failure, and probability of sufficient testosterone response from day 28 through day 364 were analyzed by the Kaplan-Meier method.

[3] = tested on: testosterone; assay type: in vivo, human; settings: for overall proportion of patients with testosterone ≦0.5 ng/mL from day 28 to day 364: observed cases analysis
Procedure: The study also evaluated the pharmacokinetics of the degarelix dosing regimens investigated. Finally, the study examined the effects of using the degarelix treatment on patients suffering from different stages of cancer. […] The primary efficacy endpoint was the probability of testosterone levels remaining ≦0.5 ng/mL from day 28 through day 364. […] The primary efficacy endpoint was analyzed for both the ITT and PP analysis sets, with the ITT analysis set considered primary. The primary efficacy endpoint was analyzed using the Kaplan Meier method. For each of the three treatment groups, testosterone response rates with 95% confidence interval (CI) were calculated by log-log transformation of survivor function. […] All secondary efficacy endpoints were analyzed for both the ITT and PP analysis sets, unless otherwise stated. […] The percentage change in PSA from baseline to day 28 endpoint was analyzed by a Wilcoxon test.

[4] = tested on: luteinizing hormone (LH); assay: Serum LH levels over time (clinical study CS21); assay type: in vivo, human; settings: day 1; degarelix, ITT analysis set
Procedure: The study also investigated whether degarelix is safe and effective with respect to achieving and maintaining testosterone suppression to castrate levels, evaluated as the proportion of patients with testosterone suppression ≦0.5 ng/mL during 12 months of treatment. […] The study also evaluated the pharmacokinetics of the degarelix dosing regimens investigated. Finally, the study examined the effects of using the degarelix treatment on patients suffering from different stages of cancer.
Patients in two treatment groups received a degarelix starting dose of 240 mg at a concentration of 40 mg/mL (240@40) on day 0 administered as two equivalent subcutaneous (s.c.) injections of 120 mg each. Thereafter, patients received 12 additional single s.c. degarelix doses of either 80 mg at a concentration of 20 mg/mL (80@20: degarelix 240/80 mg group) or 160 mg at a concentration of 40 mg/mL (160@40: degarelix 240/160 mg group) administered s.c. every 28 days.
as §1

[5] = clinical; set-up: species or system human; settings: in vivo
Description: Plasma protein binding is estimated to be approximately 90%.

[6] = human, in vivo, sc
[7] = tested on: human CYP450 (cytochrome P450) system
[8] = clinical; settings: male, human, in vivo, sc, 240 mg

With `CC(=O)N[C@H](Cc1ccc2ccccc2c1)C(=O)N[C@H](Cc1ccc(Cl)cc1)C(=O)N[C@H](Cc1cccnc1)C(=O)N[C@@H](CO)C(=O)N[C@@H](Cc1ccc(NC(=O)[C@@H]2CC(=O)NC(=O)N2)cc1)C(=O)N[C@H](Cc1ccc(NC(N)=O)cc1)C(=O)N[C@@H](CC(C)C)C(=O)N[C@@H](CCCCNC(C)C)C(=O)N1CCC[C@H]1C(=O)N[C@H](C)C(N)=O` [degarelix, D-Alaninamide, N-acetyl-3-(2-naphthalenyl)-D-alanyl-4-chloro-D-phenylalanyl-3-(3-pyridinyl)-D-alanyl-L-seryl-4-[[[(4S)-hexahydro-2,6-dioxo-4-pyrimidinyl]carbonyl]amino]-L phenylalanyl-4-[(aminocarbonyl)amino]-D-phenylalanyl-L leucyl-N6-(1-methylethyl)-L-lysyl-L-prolyl] (Ac-[d2Nal][dPhe(4-Cl)][d3Pal]S[Phe(4-NH2)](Dihydroorotyl(S))[dPhe(4-NHCONH2)]L[Lys(iPr)]P[dA]-NH2) the “S-ALP mean change from baseline” value ([1]; Localized, Day 112) was “+5 IU/L”, the “S-ALP mean change from baseline” value ([1]; Localized, Day 224) was “+8 IU/L” and the “S-ALP mean change from baseline” value ([1]; Localized, Day 364) was “+10 IU/L”. For the same compound, the “S-ALP mean change from baseline” value ([1]; Locally advanced, Day 112) was “+6 IU/L”, the “S-ALP mean change from baseline” value ([1]; Locally advanced, Day 224) was “+7 IU/L” and the “S-ALP mean change from baseline” value ([1]; Locally advanced, Day 364) was “+10 IU/L”. The “S-ALP mean change from baseline” value ([1]; Metastatic (Hb < 130 g/L), Day 112) was −160 IU/L, the “S-ALP mean change from baseline” value ([1]; Metastatic (Hb < 130 g/L), Day 224) was −200 IU/L and the “S-ALP mean change from baseline” value ([1]; Metastatic (Hb < 130 g/L), Day 364) was −230 IU/L. For the same compound, the “S-ALP mean change from baseline” value ([1]; Metastatic, Day 112) was −90 IU/L, the “S-ALP mean change from baseline” value ([1]; Metastatic, Day 224) was −100 IU/L and the “S-ALP mean change from baseline” value ([1]; Metastatic, Day 364) was −90 IU/L. The “S-ALP mean change from baseline” value ([1]; baseline PSA 10-20 ng/mL, Day 112) was “+5 IU/L”, the “S-ALP mean change from baseline” value ([1]; baseline PSA 10-20 ng/mL, Day 224) was “+8 IU/L” and the “S-ALP mean change from baseline” value ([1]; baseline PSA 10-20 ng/mL, Day 364) was “+13 IU/L”. For the same compound, the “S-ALP mean change from baseline” value ([1]; baseline PSA 20-50 ng/mL, Day 112) was “+5 IU/L”, the “S-ALP mean change from baseline” value ([1]; baseline PSA 20-50 ng/mL, Day 224) was “+7.5 IU/L” and the “S-ALP mean change from baseline” value ([1]; baseline PSA 20-50 ng/mL, Day 364) was “+4.5 IU/L”. For the same compound, the “S-ALP mean change from baseline” value ([1]; baseline PSA < 10 ng/mL, Day 112) was “+4.5 IU/L”, the “S-ALP mean change from baseline” value ([1]; baseline PSA < 10 ng/mL, Day 224) was “+5.5 IU/L” and the “S-ALP mean change from baseline” value ([1]; baseline PSA < 10 ng/mL, Day 364) was “+7 IU/L”. For the same compound, the “S-ALP mean change from baseline” value ([1]; baseline PSA > 50 ng/mL, Day 112) was −60 IU/L, the “S-ALP mean change from baseline” value ([1]; baseline PSA > 50 ng/mL, Day 224) was −70 IU/L and the “S-ALP mean change from baseline” value ([1]; baseline PSA > 50 ng/mL, Day 364) was −60 IU/L. The “probability of completing the study without experiencing PSA failure by day 364” value ([2]; degarelix 240/80 mg group) was 91.1% and 91.2%, the “proportion of PSA failures” value ([2]; patients with baseline PSA>50 ng/mL) was 29.2% and the “proportion of PSA failures” value ([2]; patients with metastatic disease at baseline) was 21.6%. For the same compound, the median testosterone level ([3]; 240 mg then monthly 80 mg, after one year) was 0.087 ng/mL, the “patients with sustained testosterone suppression” value ([3]; 240 mg then monthly 80 mg, at least one year) was 97% and the “Kaplan-Meier estimate of the probability of testosterone ≦0.5 ng/mL from day 28 to day 364” value ([3]; degarelix 240/80 mg group) was 97.2%. For the same compound, the “Kaplan-Meier estimate of the probability of testosterone ≦0.5 ng/mL from day 28 to day 364” value ([3]; degarelix 240/160 mg group) was 98.3%, the “proportion of patients with testosterone surge (increase 15% from baseline)” value ([3]; human, in vivo) was 0.2% and the “overall proportion of patients with testosterone ≦0.5 ng/mL from day 28 to day 364” value ([3]; degarelix 240/80 mg group) was 97.0%. For the same compound, the “overall proportion of patients with testosterone ≦0.5 ng/mL from day 28 to day 364” value ([3]; degarelix 240/160 mg group) was 98.2%, the “patients exhibiting testosterone suppression on day 3” value ([3]; patients receiving degarelix) was 96% and the “decrease of median LH from baseline” value [4] was “approximately 88%”. The “median LH level” value [4] was < 0.7 IU/L, the “fraction excreted via the hepato-biliary system” value [5] was “approximately 80%” and the Vd ([5]; male, human) was ~1 L/kg. For the same compound, the clearance ([5]; male, human) was 0.583 to 0.833 mL/min/kg, the dose excreted ([5]; male, human) was ~20% and the “significant metabolites in plasma samples” value [6] was “No significant metabolites were detected”. For the same compound, the AUC ([6]; 240 mg) was 1240 ng·days/mL, the “substrate for the human CYP450 system” value [7] was “not a substrate” and the Cmax [8] was 53.4 ng/mL. It also gave a Tmax [8] of 1.4 days, a half-life ([8]; T½) of 43 days and a half-life ([8]; median terminal half-life) of ~43 days.
